From patent US7541367B2, “3-benzoimidazolyl-pyrazolopyridines useful in treating kinase disorders” (Janssen Pharmaceutica, N.V., priority 2005, dated 2009) come the findings set out here.

The target in experiment [1] is T1, CDK1 (Homo sapiens, UniProt P06493).
T1 construct: purchased New England Biolabs, Beverly, Mass; 6020; host or cells: insect cells
The experiment can be described thus: CDK-1 kinase screening assay (33P-ATP FlashPlate). The conditions noted are these: human CDK1 with cyclin B; 10 μM ATP; 1 hr at 30° C. Format: biochemical. The method, then:
A kinase reaction mixture was prepared containing 50 mM Tris-HCl pH=8, 10 mM MgCl2, 0.1 mM […], 1 mM DTT, 10 μM ATP, 0.025 μM biotinylated histone-H1 peptide substrate and 0.2 μCuries per well ^33P-γ-ATP (2000-3000 Ci/mmol). 70 μL of the kinase reaction mixture was dispensed into the well of a streptavidin coated FlashPlate™ (Cat. # SMP103, NEN, Boston, Mass.).
Test compound stock in 100% DMSO (1 μL) was added to the wells resulting in a final concentration of 1% DMSO in the reaction with a 100 μL final reaction volume. Each enzyme was diluted in 50 mM Tris-HCl pH=8.0, 0.11% BSA and 30 μL was added to each well to initiate the reaction. The reaction was incubated for one hour at 30° C. At the end of the 1 hr incubation, the reaction was terminated by aspirating the mixture from the plate and washing the wells twice with PBS containing 100 mM EDTA. The biotinylated peptide substrate became immobilized on the Flashplate™ and the incorporation of ^33P-γ-ATP was measured by reading the plate on a scintillation counter. Inhibition of the enzymatic activity was measured by observing a reduced amount of ^33P-γ-ATP incorporated into the immobilized peptide.
The CDK1 enzyme was isolated from insect cells expressing both the human CDK1 catalytic subunit (Accession number NM_001786) and its positive regulatory subunit cyclin B (New England Biolabs, Beverly, Mass.; Cat. # 6020). The assay used 30 ng of the N-terminal biotinylated peptide biotin-[…]-amide (Cyclin dependent kinase 1) per well.
A maximum and minimum signal for the assay was determined on each plate. The percent inhibition of a test compound was calculated according to the formula: […]
For a series of test concentrations, the IC50 was derived by graphing percent inhibition against the log of the concentrations tested for a given compound with results shown in Table 1.
For compounds with multiple values, each value represents a separate assay result.

The target in experiment [2] is T2, VEGF-R2 (Rattus norvegicus, UniProt O08775).
T2 construct: polyhistidine (N)
Nature of the experiment: VEGF-R2 kinase screening assay (33P-ATP FlashPlate).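 Also: Read-out is ³³P incorporation from ³³P-γ-ATP into biotinylated peptide substrate captured on streptavidin FlashPlate, counted by scintillation, 1% DMSO final, inhibition scaled between per-plate maximum and minimum signals.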 Format: biochemical. As to conditions: rat VEGF-R2 kinase domain; 10 μM ATP; 1 hr at 30° C.

Experiment [3] addresses T3, Aurora-A (Mus musculus, UniProt P97477).
T3 construct: polyhistidine (N)
T3 sequence (P97477 1-395): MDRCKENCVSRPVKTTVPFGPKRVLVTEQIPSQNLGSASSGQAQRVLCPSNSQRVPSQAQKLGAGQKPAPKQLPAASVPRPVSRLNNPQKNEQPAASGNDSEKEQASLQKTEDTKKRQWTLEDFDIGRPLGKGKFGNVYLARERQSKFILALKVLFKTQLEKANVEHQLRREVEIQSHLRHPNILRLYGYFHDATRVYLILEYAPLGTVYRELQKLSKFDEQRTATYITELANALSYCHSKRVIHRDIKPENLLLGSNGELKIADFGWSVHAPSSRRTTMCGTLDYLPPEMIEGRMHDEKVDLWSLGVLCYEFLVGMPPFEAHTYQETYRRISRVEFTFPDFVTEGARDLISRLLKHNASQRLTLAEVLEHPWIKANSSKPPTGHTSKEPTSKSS
The experiment can be described thus: Aurora-A kinase screening assay (33P-ATP FlashPlate).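 Also: His-tagged mouse Aurora-A phosphorylating a biotinylated peptide captured on streptavidin plates, read as 33P uptake by scintillation counting, 1% DMSO, inhibition scaled between per-plate maximum and minimum signals.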 It is filed as biochemical. The conditions noted are these: 10 μM ATP, 1 hr at 30° C.

Experiment [4] concerns the target T4, RET (Homo sapiens, UniProt P07949).
T4 construct: polyhistidine (N)
T4 sequence (P07949 658-1114 limits assumed): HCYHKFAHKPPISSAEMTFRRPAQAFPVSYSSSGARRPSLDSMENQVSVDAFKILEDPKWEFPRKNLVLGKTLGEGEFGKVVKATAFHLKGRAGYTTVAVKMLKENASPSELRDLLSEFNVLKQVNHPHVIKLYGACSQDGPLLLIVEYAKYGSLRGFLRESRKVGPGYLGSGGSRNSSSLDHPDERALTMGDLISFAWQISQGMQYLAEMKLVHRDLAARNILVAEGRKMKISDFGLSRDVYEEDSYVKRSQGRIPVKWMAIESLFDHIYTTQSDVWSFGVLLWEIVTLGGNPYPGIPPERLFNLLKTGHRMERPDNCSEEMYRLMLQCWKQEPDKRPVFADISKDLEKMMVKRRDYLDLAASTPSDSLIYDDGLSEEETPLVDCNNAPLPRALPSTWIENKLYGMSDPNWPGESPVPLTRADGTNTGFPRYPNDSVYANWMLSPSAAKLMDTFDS
Nature of the experiment: RET kinase screening assay (33P-ATP FlashPlate).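 Also: biotinylated peptide substrate captured on streptavidin FlashPlate, 33P phosphate transfer read by scintillation counting, 1% DMSO, lower incorporation means inhibition, percent relative to per-plate maximum and minimum signals.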 The conditions noted are these: human RET kinase domain; 10 μM ATP; 1 hr at 30° C. It is filed as biochemical.

Experiment [5] deals with HeLa cervical adenocarcinoma. The experiment can be described thus: Cell Proliferation Inhibition Assay (14C-thymidine incorporation), HeLa.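 Also: test compound in DMSO added to cells seeded in scintillating 96-well plates, DMSO-only wells as control, uptake of methyl 14C-thymidine into new DNA counted.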 As to conditions: Homo sapiens, HeLa cells. It is filed as cell-based. (Incorporation of labelled thymidine or its analogues reports DNA synthesis.)
For experiment [6], the system named is A375 malignant melanoma. The experiment can be described thus: Cell Proliferation Inhibition Assay (14C-thymidine incorporation), A375.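 Also: proliferation measured by radiolabelled thymidine uptake into new DNA, counted in scintillating 96-well plates, compound-treated wells compared with DMSO-only control wells.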 As to conditions: Homo sapiens, A-375, A375 cells. Format: cell-based.
In experiment [7] the test system is HCT-116 colon carcinoma. Nature of the experiment: Cell Proliferation Inhibition Assay (14C-thymidine incorporation), HCT-116.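 Also: proliferation measured as methyl 14C-thymidine uptake into new DNA, counted in 96-well scintillating microplates, compared with DMSO-only control wells.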 Format: cell-based. As to conditions: Homo sapiens.
Experiment [8] has as its target T5, HER2 (Homo sapiens, UniProt P04626).
T5 construct: GST (Glutathione-S-Transferase) (N); HIS6 (N); thrombin cleavage site (N); purchased Proqinase, Freiburg, Germany
The experiment can be described thus: HER2 kinase screening assay (33P-ATP FlashPlate).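 Also: Biotin-poly(GT) 4:1 peptide captured on streptavidin FlashPlate, 33P transfer from γ-ATP read by scintillation counting, lower incorporation means inhibition, 1% DMSO final, 100 µL reaction.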 As to conditions: GST-HIS6 HER-2 aa 679 to 1255; 10 μM ATP; 1 hr at 30° C. It is filed as biochemical.

Molecules are shown by their SMILES.

Usually IC50 stands for the concentration at which inhibition is half-maximal. The low end stands for greater potency, the high end for weaker potency.

T2 sequence (O08775 786-1343): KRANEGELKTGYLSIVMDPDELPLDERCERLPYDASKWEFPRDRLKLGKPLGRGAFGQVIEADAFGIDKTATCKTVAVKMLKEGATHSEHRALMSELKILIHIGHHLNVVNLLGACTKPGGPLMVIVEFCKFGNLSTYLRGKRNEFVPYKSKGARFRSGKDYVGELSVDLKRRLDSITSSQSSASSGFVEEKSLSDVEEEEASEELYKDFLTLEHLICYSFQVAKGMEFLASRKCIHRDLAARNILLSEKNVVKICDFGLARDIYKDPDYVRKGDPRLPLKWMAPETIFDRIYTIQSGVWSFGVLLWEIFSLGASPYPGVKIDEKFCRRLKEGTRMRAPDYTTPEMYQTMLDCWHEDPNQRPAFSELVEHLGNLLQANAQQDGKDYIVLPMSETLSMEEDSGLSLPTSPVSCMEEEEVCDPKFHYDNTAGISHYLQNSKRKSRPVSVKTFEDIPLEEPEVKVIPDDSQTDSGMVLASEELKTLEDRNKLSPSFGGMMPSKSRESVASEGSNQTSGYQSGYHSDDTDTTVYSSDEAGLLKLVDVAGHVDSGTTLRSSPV
T5 sequence (P04626 679-1255): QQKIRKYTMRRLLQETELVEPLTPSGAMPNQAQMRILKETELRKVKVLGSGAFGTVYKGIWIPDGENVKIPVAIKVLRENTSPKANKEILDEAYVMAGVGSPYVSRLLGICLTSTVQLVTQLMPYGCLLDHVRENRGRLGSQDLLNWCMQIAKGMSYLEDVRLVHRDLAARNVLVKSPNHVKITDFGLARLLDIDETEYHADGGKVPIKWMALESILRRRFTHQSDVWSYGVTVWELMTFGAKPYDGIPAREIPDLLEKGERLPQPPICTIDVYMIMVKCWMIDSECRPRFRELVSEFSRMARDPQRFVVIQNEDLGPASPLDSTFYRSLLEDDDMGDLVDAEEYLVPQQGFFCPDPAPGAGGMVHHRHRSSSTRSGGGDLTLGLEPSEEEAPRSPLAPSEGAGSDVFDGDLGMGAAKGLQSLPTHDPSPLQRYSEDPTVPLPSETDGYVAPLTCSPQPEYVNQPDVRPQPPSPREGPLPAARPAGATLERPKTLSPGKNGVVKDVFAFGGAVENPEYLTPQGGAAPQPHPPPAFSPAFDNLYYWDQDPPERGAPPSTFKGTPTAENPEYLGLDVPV
T1 sequence (P06493 whole entry): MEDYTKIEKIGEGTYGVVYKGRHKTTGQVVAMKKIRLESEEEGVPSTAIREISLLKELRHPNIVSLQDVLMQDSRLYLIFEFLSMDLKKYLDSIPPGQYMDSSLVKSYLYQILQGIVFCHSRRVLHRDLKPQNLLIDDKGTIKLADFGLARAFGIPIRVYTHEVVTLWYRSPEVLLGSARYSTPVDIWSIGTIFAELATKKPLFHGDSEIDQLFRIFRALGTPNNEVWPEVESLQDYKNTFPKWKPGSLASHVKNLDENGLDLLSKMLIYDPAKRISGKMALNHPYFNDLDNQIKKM
T1 sequence (P14635 whole entry partner): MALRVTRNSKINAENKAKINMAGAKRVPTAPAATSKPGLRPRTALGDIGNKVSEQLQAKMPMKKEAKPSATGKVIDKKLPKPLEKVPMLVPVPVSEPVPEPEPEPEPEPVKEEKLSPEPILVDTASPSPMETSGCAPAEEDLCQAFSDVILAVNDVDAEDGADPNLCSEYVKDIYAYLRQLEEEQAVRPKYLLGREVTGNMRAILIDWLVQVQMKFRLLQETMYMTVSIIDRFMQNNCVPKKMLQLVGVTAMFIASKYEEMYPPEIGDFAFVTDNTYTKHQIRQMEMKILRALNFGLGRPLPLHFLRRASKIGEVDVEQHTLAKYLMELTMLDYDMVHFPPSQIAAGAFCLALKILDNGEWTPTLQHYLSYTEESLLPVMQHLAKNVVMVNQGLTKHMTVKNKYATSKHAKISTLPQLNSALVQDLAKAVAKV

With `c1ccc2c(-c3cnc4[nH]nc(-c5nc6c(CN7CCOCC7)cccc6[nH]5)c4c3)cncc2c1` [Cpd 9, 4-[3-(4-morpholin-4-ylmethyl-1H-benzoimidazol-2-yl)-1H-pyrazolo[3,4-b]pyridin-5-yl]-isoquinoline], the half-maximal inhibitory concentration (IC50) in experiment [1] was 8.45 nM; in experiment [2], 210 nM; in experiment [3], ~10 µM; in experiment [4], ~10 µM; in experiment [5] (HeLa) it was 92.6 nM; in experiment [6], 84 nM. In experiment [7] (HCT-116, HCT-116 cells), this molecule came in with an IC50 of 64.7 nM.

With `c1ccc2c(-c3cnc4[nH]nc(-c5nc6c(Cn7ccnc7)cccc6[nH]5)c4c3)cncc2c1` [Cpd 12, 4-[3-(4-imidazol-1-ylmethyl-1H-benzoimidazol-2-yl)-1H-pyrazolo[3,4-b]pyridin-5-yl]-isoquinoline], the half-inhibitory concentration (IC50) in experiment [1] was 41.5 nM; in experiment [2], ~10000 nM; in experiment [3], ~10 µM; in experiment [4] it was ~100 µM; in experiment [5] (HeLa) it was 3200 nM; in experiment [6], 4090 nM. The IC50 in experiment [7] (HCT-116, HCT-116 cells) came out at 1890 nM.

Consider `c1ccc2c(-c3cnc4[nH]nc(-c5nc6c(CN7CCCCC7)cccc6[nH]5)c4c3)cncc2c1` [Cpd 8, 4-[3-(4-piperidin-1-ylmethyl-1H-benzoimidazol-2-yl)-1H-pyrazolo[3,4-b]pyridin-5-yl]-isoquinoline], for which the concentration for half-maximal inhibition (IC50) in experiment [1] is 8.11 nM; in experiment [2], 403 nM; in experiment [3], 1.37 µM; in experiment [4], > 10 µM; in experiment [5] (HeLa), 48.6 nM; in experiment [6], 29.2 nM. The molecule also came in with an IC50 in experiment [7] (HCT-116, HCT-116 cells) of 28.5 nM.

In the case of `COCc1cccc2[nH]c(-c3n[nH]c4ncc(-c5cnc6ccccc6c5)cc34)nc12` [Cpd 34, 3-[3-(4-methoxymethyl-1H-benzoimidazol-2-yl)-1H-pyrazolo[3,4-b]pyridin-5-yl]-quinoline], the IC50 in experiment [1] is 1360 nM; in experiment [2] it was 157 nM; in experiment [3] it was > 10 µM; in experiment [4], ~10 µM; in experiment [5] (HeLa), 1460 nM; in experiment [6], 10.7 nM.

For `OCc1cccc2[nH]c(-c3n[nH]c4ncc(-c5cncc6ccccc56)cc34)nc12` [Cpd 3, [2-(5-isoquinolin-4-yl-1H-pyrazolo[3,4-b]pyridin-3-yl)-1H-benzoimidazol-4-yl]-methanol], the IC50 in experiment [1] is 41.2 nM; in experiment [2], > 100000 nM; in experiment [8], 0.245 µM; in experiment [3] it was > 10 µM; in experiment [4], > 100 µM; in experiment [5] (HeLa) it was 1760 nM. This molecule also gave an IC50 in experiment [7] (HCT-116, HCT-116 cells) of 892 nM.

Regarding `CCN1CCN(Cc2cccc3[nH]c(-c4n[nH]c5ncc(-c6cncc7ccccc67)cc45)nc23)CC1` [Cpd 10, 4-{3-[4-(4-ethyl-piperazin-1-ylmethyl)-1H-benzoimidazol-2-yl]-1H-pyrazolo[3,4-b]pyridin-5-yl}-isoquinoline], the IC50 in experiment [1] is 15.9 nM; in experiment [2], 163 nM; in experiment [3], 6.74 µM; in experiment [4] it was > 10 µM; in experiment [5] (HeLa), 127 nM; in experiment [6], 118 nM. In experiment [7] (HCT-116, HCT-116 cells), this molecule displayed a 50% inhibitory concentration (IC50) of 191 nM.

With `c1ccc2c(-c3cnc4[nH]nc(-c5nc6c(CN7CCCC7)cccc6[nH]5)c4c3)cncc2c1` [Cpd 7, 4-[3-(4-pyrrolidin-1-ylmethyl-1H-benzoimidazol-2-yl)-1H-pyrazolo[3,4-b]pyridin-5-yl]-isoquinoline], the concentration for half-maximal inhibition (IC50) in experiment [1] is 4.92 nM; in experiment [2], 1570 nM; in experiment [3], 1.72 µM; in experiment [4] it was > 10 µM; in experiment [5] (HeLa), 113 nM; in experiment [6], 82.5 nM. In experiment [7] (HCT-116, HCT-116 cells), this molecule yielded an IC50 of 64.8 nM.

Take `COC(=O)c1cccc2[nH]c(-c3n[nH]c4ncc(-c5cncc6ccccc56)cc34)nc12` [Cpd 108, 2-(5-isoquinolin-4-yl-1H-pyrazolo[3,4-b]pyridin-3-yl)-1H-benzoimidazole-4-carboxylic acid methyl ester]: the IC50 in experiment [1] is ~10000 nM; in experiment [2], ~100000 nM; in experiment [8] it was > 100 µM; in experiment [3] it was ~100 µM; in experiment [4], > 100 µM; in experiment [5] (HeLa), 10500 nM. In experiment [6], this molecule came in with an IC50 of 7380 nM.

For `CCCNCc1cncc(-c2cnc3[nH]nc(-c4nc5cc(OC)ccc5[nH]4)c3c2)c1` [Cpd 103, {5-[3-(5-methoxy-1H-benzoimidazol-2-yl)-1H-pyrazolo[3,4-b]pyridin-5-yl]-pyridin-3-ylmethyl}-propyl-amine], the half-inhibitory concentration (IC50) in experiment [1] amounted to 0.4 nM; in experiment [2], 47.6 nM; in experiment [8], 2.16 µM; in experiment [3] it was 0.27 µM; in experiment [5], 62.3 nM; in experiment [6] it was 39.2 nM. Besides, the IC50 in experiment [7] (HCT-116 cells) was 33.5 nM.

In the case of `COCc1cccc2[nH]c(-c3n[nH]c4ncc(-c5c[nH]c6ncccc56)cc34)nc12` [Cpd 37, 3-(4-methoxymethyl-1H-benzoimidazol-2-yl)-5-(1H-pyrrolo[2,3-b]pyridin-3-yl)-1H-pyrazolo[3,4-b]pyridine], the half-maximal inhibitory concentration (IC50) in experiment [1] is 87.5 nM; in experiment [2], > 10 nM; in experiment [8], > 100 µM; in experiment [3], 0.191 µM; in experiment [5] (HeLa), 1840 nM; in experiment [6] it was 20.1 nM. In experiment [7] (HCT-116, HCT-116 cells), this molecule came in with an IC50 of 5 nM.

On to `COCc1cccc2[nH]c(-c3n[nH]c4ncc(-c5cccnc5)cc34)nc12` [Cpd 35, 3-(4-methoxymethyl-1H-benzoimidazol-2-yl)-5-pyridin-3-yl-1H-pyrazolo[3,4-b]pyridine], for which the IC50 in experiment [1] is 29.3 nM; in experiment [2] it was 160 nM; in experiment [8], > 100 µM; in experiment [3], > 1 µM; in experiment [5] (HeLa) it was 650 nM; in experiment [6], 32.8 nM. In experiment [7] (HCT-116, HCT-116 cells), this molecule displayed an IC50 of 18.8 nM.

Consider `CNCc1cncc(-c2cnc3[nH]nc(-c4nc5cc6c(cc5[nH]4)OC(F)(F)O6)c3c2)c1` [Cpd 100, {5-[3-(2,2-difluoro-5H-[1,3]dioxolo[4′,5′:4,5]benzo[1,2-d]imidazol-6-yl)-1H-pyrazolo[3,4-b]pyridin-5-yl]-pyridin-3-ylmethyl}-methyl-amine], for which the IC50 in experiment [1] was 1.6 nM; in experiment [2] it was ~100 nM; in experiment [8], 7.06 µM; in experiment [3], ~10 µM; in experiment [5] (HeLa), 55.1 nM; in experiment [6] it was 52.5 nM. In experiment [7] (HCT-116, HCT-116 cells), the midpoint of inhibition, the IC50, lay at 237 nM.
